Among the data in patent publication EP4722219A1 (Gan & Lee Pharmaceuticals Co., Ltd., priority 2023, dated 2024) are IC50 values, retold here.

Where only a bound is given, the exact number is not on record here.

In one experiment the test system is T-47D cells. Briefly: Inhibition of cell proliferation in T-47D cells (CCK-8). Particulars: 6 days treatment, CCK-8 cell viability. It is filed as cell-based. Here is the method: Test Example 2 Inhibitory effect of PROTAC compounds provided by the present invention on cell proliferation in T-47D cells
The complete culture medium required for T-47D cells is 1640 (ATCC, Product number: A10491-01) basal culture medium containing 10% fetal bovine serum. T-47D cells were seeded in 96-well plates at a density of 3,000 cells/well, and different concentrations of PROTAC compounds 1-55 provided in the examples of the present invention and positive control sample ARV-471 (source: Inokai) were prepared to treat the cells and incubated at 37 °C, 5% CO2 cell culture incubator for 6 days. According to the manufacturer's instructions, cell viability was detected using a CCK-8 kit (Beyotime, Product number: C0040). The IC50 of each compound after treating for 6 days was calculated using GraphPadPrism software based on the inhibition rate. Table 2 Inhibition IC50 value of T-47D cell proliferation by PROTAC compounds provided by the present invention and positive control sample

The subject of a further experiment is MCF-7 cells. Briefly: Inhibition of cell proliferation in MCF-7 cells (CCK-8). It is filed as cell-based. Particulars: MCF-7 cell proliferation, 6 days treatment. Here is the method:
Test Example 3 Inhibitory effect of PROTAC compounds provided by the present invention on cell proliferation in MCF-7 cells
The complete culture medium required for MCF-7 cells (source ATCC) is DMEM (gibco, Product number: 11995-065) basal culture medium containing 10% fetal bovine serum. MCF-7 cells were seeded in 96-well plates at a density of 800 cells/well, and different concentrations of PROTAC compounds 1-55 provided in the examples of the present invention and positive control sample ARV-471 (source: Inokai) were prepared to treat the cells and incubated at 37 °C, 5% CO2 cell culture incubator for 6 days. According to the manufacturer's instructions, cell viability was detected using a CCK-8 kit (Beyotime, Product number: C0040). The IC50 of each PROTAC compound after treating for 6 days was calculated using GraphPadPrism software based on the inhibition rate. Table 3 Inhibition IC50 value of MCF-7 cell proliferation by PROTAC compounds of the present invention and positive control sample

As usually defined, the IC50 is the concentration that inhibits the measured activity by half.

Regarding `O=C1CCC(NC(=O)c2cc3c(cc2F)C2(CCN(CC4CCC(OC5CCN(c6ccc(C7c8ccc(O)cc8CCC7c7ccccc7)cc6)CC5)CC4)CC2)CO3)C(=O)N1` [ER-P-87, N-((S)-2,6-dioxopiperidin-3-yl)-5-fluoro-1'-(((1S,4R)-4-((1-(4-((1R,2S)-6-hydroxy-2-phenyl-1,2,3,4-tetrahydronaphthalen-1-yl)phenyl)piperidin-4-yl)oxy)cyclohexyl)methyl)-2H-spiro[benzofuran-3,4'-piperidine]-6-carboxamide], the IC50 is 0.053 µM with T-47D cells (Homo sapiens, T47D, 144 h) and 4 µM with MCF-7 cells (Homo sapiens, MCF7, 144 h).
For the compound `O=C1CC[C@H](NC(=O)c2c(F)ccc3c2OCC32CCN(CC3CCC(OC4CCN(c5ccc([C@@H]6c7ccc(O)cc7CC[C@@H]6c6ccccc6)cc5)CC4)CC3)CC2)C(=O)N1` (stereo partly shown) [ER-P-86], the IC50 in the experiment on T-47D cells is 0.0688 µM; in the experiment with MCF-7 cells, 6.67 µM.
For the compound `CN(CC(=O)N1CC2(CCC3(CC2)COc2c3ccc3c2CN(C2CCC(=O)NC2=O)C3=O)C1)C1CCC2(CC1)CN(c1ccc([C@@H]3c4ccc(O)cc4CC[C@@H]3c3ccccc3)cc1)C2` (stereo partly drawn) [ER-P-72, 3-(1-(N-(2-(4-((1R,2S)-6-hydroxy-2-phenyl-1,2,3,4-tetrahydronaphthalen-1-yl)phenyl)-2-azaspiro[3.5]nonan-7-yl)-N-methylglycyl)-6"-oxo-6",8"-dihydro-2"H,7"H-dipyridole[azetidine-3,1'-cyclohexane-4',3"-furo[2,3-e]isoindol]-7"-yl)piperidine-2,6-dione], the 50% inhibitory concentration (IC50) was 0.00134 µM in the experiment with T-47D cells (Homo sapiens, T47D, 144 h) and 14.3 µM in the experiment with MCF-7 cells (Homo sapiens, MCF7, 144 h).
With `O=C1CCC(NC(=O)c2cc3c(cc2F)CCC2(CCN(CC4CCC(OC5CCN(c6ccc(C7c8ccc(O)cc8CCC7c7ccccc7)cc6)CC5)CC4)CC2)O3)C(=O)N1` [ER-P-90, N-((S)-2,6-dioxopiperidin-3-yl)-6-fluoro-1'-((((1S,4R)-4-((1-(4-((1R,2S)-6-hydroxy-2-phenyl-1,2,3,4-tetrahydronaphthalen-1-yl)phenyl)piperidin-4-yl)oxy)cyclohexyl)methyl)spiro[chromane-2,4'-piperidine]-7-carboxamide], the IC50 is 0.171 µM in the experiment with T-47D cells (Homo sapiens, T47D, 144 h) and 3.65 µM in the experiment on MCF-7 cells (Homo sapiens, MCF7, 144 h).
On to `O=C1CC[C@H](NC(=O)c2cc3c(cc2F)OCC32CCN(CC3CCC(OC4CCN(c5ccc([C@@H]6c7ccc(O)cc7CC[C@@H]6c6ccccc6)cc5)CC4)CC3)CC2)C(=O)N1` (stereo partly drawn) [ER-P-83, N-((S)-2,6-dioxopiperidin-3-yl)-6-fluoro-1'-(((1S,4R)-4-((1-(4-((1R,2S)-6-hydroxy-2-phenyl-1,2,3,4-tetrahydronaphthalen-1-yl)phenyl)piperidin-4-yl)oxy)cyclohexyl)methyl)-2H-spiro[benzofuran-3,4'-piperidine]-5-carboxamide], for which the values for the IC50 with T-47D cells and with MCF-7 cells were 0.138 µM and 4.33 µM, respectively.
In the case of `O=C1CC[C@H](NC(=O)c2ccc3c(c2F)OCC32CCN(CC3CCC(OC4CCN(c5ccc([C@@H]6c7ccc(O)cc7CC[C@@H]6c6ccccc6)cc5)CC4)CC3)CC2)C(=O)N1` (stereo partly drawn) [ER-P-82, N-((S)-2,6-dioxopiperidin-3-yl)-7-fluoro-1'-(((1S,4R)-4-((1-(4-((1R,2S)-6-hydroxy-2-phenyl-1,2,3,4-tetrahydronaphthalen-1-yl)phenyl)piperidin-4-yl)oxy)cyclohexyl)methyl)-2H-spiro[benzofuran-3,4'-piperidine]-6-carboxamide], the IC50 in the experiment on T-47D cells was 0.0281 µM; in the experiment on MCF-7 cells, 4.39 µM.
On to `Cn1c(=O)n(C2CCC(=O)NC2=O)c2ccc3c(c21)OCC31CCN(C(=O)CN2CCC3(CCN(c4ccc([C@@H]5c6ccc(O)cc6CC[C@@H]5c5ccccc5)cc4)CC3)C2)CC1` (stereo partly drawn) [ER-P-68, 3-(1'-(2-(8-(4-((1R,2S)-6-hydroxy-2-phenyl-1,2,3,4-tetrahydronaphthalen-1-yl)phenyl)-2,8-diazaspiro[4.5]decan-2-yl)acetyl)-1-methyl-2-oxo-1,2-dihydro-3H,7H-spiro[benzofuro[6,7-d]imidazole-6,4'-piperidin]-3-yl)piperidine-2,6-dione], for which the IC50 in the experiment on T-47D cells (Homo sapiens, T47D, 144 h) is 0.00118 µM; in the experiment on MCF-7 cells (Homo sapiens, MCF7, 144 h) it was 0.00827 µM.
With `Cn1c(=O)n(C2CCC(=O)NC2=O)c2ccc3c(c21)OCC31CCN(C2CCN(C3CCN(c4ccc([C@@H]5c6ccc(O)cc6CC[C@@H]5c5ccccc5)cc4)CC3)CC2)CC1` (stereo partly shown), the IC50 in the experiment on T-47D cells (Homo sapiens, T47D, 144 h) is 0.00171 µM; in the experiment on MCF-7 cells (Homo sapiens, MCF7, 144 h), 0.0117 µM.
With `CN(CC(=O)N1CCC2(CC1)COc1c2ccc2c1n(C)c(=O)n2C1CCC(=O)NC1=O)CC1CCN(c2ccc([C@@H]3c4ccc(O)cc4CC[C@@H]3c3ccccc3)cc2)CC1` (stereo partly drawn) [ER-P-75, 3-(1'-(N-((1-(4-((1R,2S)-6-hydroxy-2-phenyl-1,2,3,4-tetrahydronaphthalen-1-yl)phenyl)piperidin-4-yl)methyl)-N-methylglycyl)-1-methyl-2-oxo-1,2-dihydro-3H,7H-spiro[benzofuro[6,7-d]imidazole-6,4'-piperidin]-3-yl)piperidine-2,6-dione], the IC50 with T-47D cells (Homo sapiens, T47D, 144 h) was 0.00116 µM; with MCF-7 cells (Homo sapiens, MCF7, 144 h), 3 µM.
“N-((S)-2,6-dioxopiperidin-3-yl)-6'-fluoro-1-(((1 S,4R)-4-((1-(4-((1R,2S)-6-hydroxy-2-phenyl-1,2,3,4-tetrahydronaphthalen-1-yl)phenyl)piperidin-4-yl)oxy)cyclohexyl)methy l)spiro[azetidine-3,2'-chromane]-7'-carboxamide [ER-P-85]”: the values for the IC50 in the experiment on T-47D cells and with MCF-7 cells were 0.0709 µM and 0.956 µM, respectively.
Turning to `Cn1c(=O)n(C2CCC(=O)NC2=O)c2ccc3c(c21)C1(CCN(C2CCN(C(=O)C4CCN(c5ccc([C@@H]6c7ccc(O)cc7CC[C@@H]6c6ccccc6)cc5)CC4)CC2)CC1)CO3` (stereo partly drawn) [ER-P-77, 3-(1'-(1-(4-(((1R,2S)-6-hydroxy-2-phenyl-1,2,3,4-tetrahydronaphthalen-1-yl)phenyl)piperidine-4-carbonyl)piperidin-4-yl)-1-methyl-2-oxo-1,2-dihydro-3H,7H-spiro[benzofuro[4,5-d]imidazole-8,4'-piperidin]-3-yl)piperidine-2,6-dione], the IC50 was 0.00187 µM in the experiment with T-47D cells (Homo sapiens, T47D, 144 h) and 0.0847 µM in the experiment with MCF-7 cells (Homo sapiens, MCF7, 144 h).
As to `COc1cc2c(cc1C(=O)N[C@H]1CCC(=O)NC1=O)OCC21CCN(CC2CCC(OC3CCN(c4ccc([C@@H]5c6ccc(O)cc6CC[C@@H]5c5ccccc5)cc4)CC3)CC2)CC1` (stereo partly drawn) [ER-P-84, N-((S)-2,6-dioxopiperidin-3-yl)-1'-(((1S,4R)-4-((1-(4-((1R,2S)-6-hydroxy-2-phenyl-1,2,3,4-tetrahydronaphthalen-1-yl)phenyl)piperidin-4-yl)oxy)cyclohexyl)methyl)-5-methoxy-2H-spiro[benzofuran-3,4'-piperidine]-6-carboxamide], the values for the IC50 in the experiment on T-47D cells and in the experiment with MCF-7 cells were 0.0177 µM and 8.33 µM, respectively.
With `COc1cc2c(cc1C(=O)NC1CCC(=O)NC1=O)CCC1(CCN(CC3CCC(OC4CCN(c5ccc(C6c7ccc(O)cc7CCC6c6ccccc6)cc5)CC4)CC3)CC1)O2` (stereo not shown) [ER-P-88], the IC50 in the experiment with T-47D cells (Homo sapiens, T47D, 144 h) is 0.00959 µM; in the experiment with MCF-7 cells (Homo sapiens, MCF7, 144 h), 1.03 µM.
For `O=C1CCC(N2Cc3c(ccc4c3OCC43CCC4(CCN(C(=O)C5CCN(c6ccc([C@@H]7c8ccc(O)cc8CC[C@@H]7c7ccccc7)cc6)CC5)CC4)CC3)C2=O)C(=O)N1` (stereo partly drawn) [ER-P-76, 3-(1"-(1-(4-((1R,2S)-6-hydroxy-2-phenyl-1,2,3,4-tetrahydronaphthalen-1-yl)phenyl)piperidine-4-carbonyl)-6-oxo-6,8-dihydro-2H,7H-dipyridole[furo[2,3-e]isoindole-3,1'-cyclohexane-4',4"-piperidin]-7-yl)piperidine-2,6-dione], the IC50 is 0.00575 µM in the experiment on T-47D cells (Homo sapiens, T47D, 144 h) and more than 100 µM in the experiment on MCF-7 cells (Homo sapiens, MCF7, 144 h).
As to `COc1cc2c(cc1C(=O)NC1CCC(=O)NC1=O)C1(CCN(CC3CCC(OC4CCN(c5ccc(C6c7ccc(O)cc7CCC6c6ccccc6)cc5)CC4)CC3)CC1)CO2` [ER-P-91, N-((S)-2,6-dioxopiperidin-3-yl)-1'-(((1S,4R)-4-((1-(4-((1R,2S)-6-hydroxy-2-phenyl-1,2,3,4-tetrahydronaphthalen-1-yl)phenyl)piperidin-4-yl)oxy)cyclohexyl)methyl)-6-methoxy-2H-spiro[benzofuran-3,4'-piperidine]-5-carboxamide], the IC50 in the experiment on T-47D cells (Homo sapiens, T47D, 144 h) was 0.15 µM; in the experiment on MCF-7 cells (Homo sapiens, MCF7, 144 h), 7.94 µM.
The corresponding values for `Cn1c(=O)n(C2CCC(=O)NC2=O)c2ccc3c(c21)OCC31CCN(C(=O)C2CCN(CC3CCN(c4ccc([C@@H]5c6ccc(O)cc6CC[C@@H]5c5ccccc5)cc4)CC3)CC2)CC1` (stereo partly shown) [ER-P-74] are 0.00122 µM and 2.1 µM.
With `O=C1CCC(N2Cc3c(ccc4c3OCC43CCC4(CCN(C[C@H]5CC[C@@H](OC6CCN(c7ccc([C@@H]8c9ccc(O)cc9CC[C@@H]8c8ccccc8)cc7)CC6)CC5)CC4)CC3)C2=O)C(=O)N1` (stereo partly drawn) [ER-P-79, 3-(1"-(((1S,4S)-4-((1-(4-((1R,2S)-6-hydroxy-2-phenyl-1,2,3,4-tetrahydronaphthalen-1-yl)phenyl)piperidin-4-yl)oxy)cyclohexyl)methyl)-6-oxo-6,8-dihydro-2H,7H-dispiro[furo[2,3-e]isoindole-3,1'-cyclohexane-4',4"-piperidin]-7-yl)piperidine-2,6-dione], the IC50 is 0.00846 µM in the experiment with T-47D cells and 0.0634 µM in the experiment on MCF-7 cells.
